Laboratory results from patent US20040023884A1, “Biologically active peptides from functional domains of bactericidal/permeability-increasing protein and uses thereof” (priority 1993, published 2004).
Ends that are not written are not given here.

Columns and labels:
[1] = test system: LPS-stimulated TNF production in THP-1 cells; test: LPS neutralization by TNF cellular toxicity assay (THP-1 / L929 cells); format: cell-based, human; settings: 5 ng/mL LPS
Description: A screening assay for LPS neutralization was developed using a tumor necrosis factor (TNF) cellular toxicity assay. A human monocytic cell line (THP-1; accession number TIB202, American Type Culture Collection, Rockville, Md.) grown in media supplemented with Vitamin D produce TNF upon stimulation with LPS in a dose-dependent fashion. Mouse fibroblasts (L929 cells; ATCC No.: CCL1) are sensitive to TNF-mediated cell killing, and this cell killing is also dose-dependent. Thus, the extent of cell killing of L929 cells provides a sensitive assay for the degree of TNF induction in THP-1 cells, which in turn is a sensitive indicator of the amount of free LPS in contact with the THP-1 cells. LPS binding and neutralization by BPI functional domain peptides or rBPI23 reduces the amount of free LPS in contact with THP-1 cells, which reduces the amount of TNF produced, which in turn reduces the amount of L929 cell killing in a standardized assay. Thus, the following assay provides a sensitive method for assessing the LPS binding and neutralization capacity of the BPI functional domain peptides of this invention.
THP-1 cells were grown in RPMI media (GIBCO, Long Island, N.Y.) supplemented with 10% FCS and Vitamin D in spinner culture for 3 days to a density of about 150,000 cells/mL. Cells were then plated in a round-bottomed 96-well culture plate at a density of 100,000 cells/well and incubated in RPMI media without Vitamin D or FCS in the presence of 5 ng/mL E. coli 01113 LPS for 6 hr at 37° C. Experimental control wells also contained varying amounts of rBPI23 or BPI functional domain peptides, in concentrations varying from about 0.1 μg/mL to about 100 μg/mL. After this incubation, the plates were centrifuged at about 600×g to pellet the cells, and 50 μL of the supernatant were added to a 96-well flat bottomed culture dish prepared in parallel with 50,000 L929 cells per well in 50 μL RPMI/10% FCS.
L929 cells were prepared by monolayer growth in RPMI/10% FCS media to a density of about 1 million cells per dish, then split 1:2 on the day before the experiment and allowed to grow overnight to about 70% confluence on the day of the experiment. Actinomycin D was added to the 70% confluent culture to a final concentration of 1 μg/mL 20 min prior to plating in 96-well plates. L929 cell plates were incubated in the presence of the THP-1 supernatant for about 16 hr (overnight) at 37° C. under standard conditions of mammalian cell growth. To each well was then added […] of a solution prepared by diluting 100 μL of phenazine methylsulfonate in 2 mL CellTitre 96™ AQueous solution (Promega, Madison, Wis.), containing 3-[(4,5-dimethyl)-thiozol-2-yl]-5-(3-carboxymethoxyphenyl)-2-(4-sulfonyl)-2H-tetrazolium (inner salt). The cultures were allowed to incubate for 2-4 hr at 37° C. and then analyzed spectrophotometrically to determine the optical absorbance at 490 nm (A490). Experimental results were evaluated relative to a semilog standard curve prepared with known amounts of TNF, varying from about 10 ng/mL to about […].

ATIII/heparin complexes = test: Thrombin inactivation by ATIII/heparin complexes (Chromostrate anti-thrombin assay); format: biochemical; settings: 1.0 to 100 μg/mL
Description: BPI functional domain peptides BPI.2, BPI.3, BPI.4, BPI.5, BPI.6, and BPI.8, along with rBPI23 as a positive control, were assayed for their effect on thrombin inactivation by ATIII/heparin complexes according to the method of Example 3 in copending and co-assigned U.S. patent application Ser. No. 08/093,202, filed Jul. 15, 1993, incorporated by reference. Specifically, a Chromostrate™ anti-thrombin assay kit (Organon Teknika Corp., Durham, N.C.) was used to examine the inhibition of purified thrombin by preformed ATIII/heparin complexes in plasma.
Briefly, the assay was performed in 96 well microtiter plates in triplicate with a final volume per well of 200 μL. Varying concentrations of the BPI functional domain peptides ranging from 1.0 μg/mL to 100 μg/mL were assayed to determine their effect on thrombin inhibition in the presence of pre-formed ATIII/heparin complexes. The order of addition of assay components was as follows: 1) a dilution series of rBPI23 or BPI functional domain peptides or thaumatin as a control protein, with final concentrations of 100, 50, 25, 10 and 1 μg/well, diluted in PBS in a final volume of 50 μL; 2) 50 μL plasma diluted 1:100 in a buffer supplied by the manufacturer, 3) 50 μl thrombin at 1 nKat/mL in a buffer supplied by the manufacturer, and 4) 50 μL chromogenic substrate at a concentration of 1 μmol/mL in water. The reaction was allowed to proceed for 10 minutes at 37° C. and stopped with the addition of 50 μL 0.1M citric acid. The colorimetric reaction was quantitated on a microplate reader as described in Example 3.

[2] = test system: LPS-stimulated NO production by RAW 264.7 cells; test: LPS-stimulated NO production by RAW 264.7 cells; format: cell-based, mouse; settings: for IC50 NO assay: LPS-stimulated NO production by RAW 264.7 cells
Description: (§1) An additional LPS neutralization screening assay for BPI functional domain peptides was developed using an assay for NO production in mouse cells treated with LPS (see Lorsbach et al., 1993, J. Biol. Chem. 268: 1908-1913). In this assay, mouse RAW 264.7 cells (ATCC Accession No. TIB71) were treated with bacterial LPS. The cells were incubated in 96-well plates and stimulated for 2 hours with E. coli 0113 LPS or zymosan, in the presence or absence of _-interferon, rLBP, fetal bovine serum (FBS) or normal human serum (NHS), or rBPI21Δcys. After this incubation, the cells were washed with fresh media and incubated overnight in media containing 10% FCS. The NO released from the cells accumulated in the media and spontaneously converted to nitrite. This nitrite was assayed in situ by the Griess reaction, as follows. The nitrite was reacted with the primary amine of an added sulfanilamide and formed a diazonium salt. This salt was then reacted with added naphthylethylenediamine to form a red azo-dyc. The Griess reaction was performed at room temperature in about 10 minutes. The amount of produced NO was estimated from a standard curve of Griess reaction products determined spectrophotometrically as Absorbance at a wavelength of 550 nm.

[3] = test system: Klebsiella pneumoniae 19645; test: Radial diffusion bactericidal assay, antibiotic resistant Klebsiella pneumoniae 19645; format: cell-based
Description: These studies were conducted substantially following the procedures used in Example 2.
In order to test the bactericidal activity of BPI peptides on antibiotic resistant strains of Klebsiella pneumoniae, the multi-resistant clinically isolated strain 19645 was tested as in Example 2 and above. […] This strain was obtained from the Baxter Microscan® library (Sacramento, Calif.). An overnight culture of Klebsiella pneumoniae 19645 and a non-resistant strain (ATCC 29011) were diluted 1:50 into fresh tryptic soy broth and incubated for 3 hours at 37° C. to attain log phase. The overnight cultures were tested as described in Example 2 and part A above.

[4] = test system: zymosan-stimulated NO production by RAW 264.7 cells; test: Zymosan-stimulated NO production by RAW 264.7 cells; format: cell-based, mouse
Description: as §1

Substance	IC50 (LPS-stimulated TNF production, L929 cell killing) [1]	heparin neutralization effect (in words) (ATIII/heparin complexes)	IC50 NO assay [2]	bactericidal activity (in words) [3]	inhibition of zymosan-stimulated NO production (in words) [4]	inhibition of LPS-stimulated NO production (in words) [2]
KWKAQKRFLKKWKAQKRFLK-NH2 (C-terminus assumed) [BPI.7]	30 µg/mL	significant heparin neutralization effects	Not Inhibitory	active against antibiotic resistant Klebsiella	small amount of inhibition by BPI.7 at high concentrations	
KWKAAARFLKKWKAAARFLK [BPI.48]	1 µg/mL			active against antibiotic resistant Klebsiella		
IKISGKWKAQKRFLK [BPI.2]					not inhibited	
KSKVGWLIQLFHKK-NH2 (C-terminus assumed) [BPI.13]	20 µg/mL		16 µg/mL			detectable levels of LPS neutralization
KSKVGWLIQLFHKKKSKVGWLIQLFHKK-NH2 (C-terminus assumed) [BPI.29]	2 to 3 µg/mL		2.4 µg/mL			detectable levels of LPS neutralization
NVGLKFSISNANIKISGKWKAQKRFLK [BPI.3]		most significant heparin neutralization effects			not inhibited	detectable levels of LPS neutralization
KWKAQKRFLKKSKVGWLIQLFHKK-NH2 (C-terminus assumed) [BPI.30]	6 to 7 µg/mL				inhibited by BPI.30 at high (—100 μg/mL) concentrations	detectable levels of LPS neutralization
